pEC50: −log10 of the molar value.

One assay has as its target T1, MOR (Homo sapiens, UniProt P35372).
T1 construct: expressed in transfected cells; host or cells: CHO-K1/OP3 (name from the earlier reading)
Briefly: Agonist test on MOR, cAMP level (CHO-K1/OP3 cells, cAMP assay kit). In kind it is cell-based. The note with it: for pEC50: forskolin-stimulated cAMP, read-out: EC50 agonizing MOR receptor to affect cAMP level; for Emax: maximal effect of DAMGO is 100%, read-out: Emax agonizing MOR receptor to affect cAMP level. The protocol: 5×stimulation buffer was diluted to 1× with ddH2O, an appropriate amount of 500 mM IBMX (generally, the IBMX stock solution was prepared to be 500 mM, namely 1000×) was added to enable the final concentration of the IBMX to be 0.5 mM, and the mixture was mixed well for later use (after the IBMX was added, that precipitation occurred was normal, and the precipitate was dissolved by well mixing). It must be prepared right before use.
1.3.1.2 IBMX was dissolved with DMSO to prepare a 500 mM stock solution, which was aliquoted into 20 μL/tube and cryopreserved at −80° C. to avoid repetition of freezing and thawing.
1.3.1.3 Forskolin was dissolved with DMSO to prepare a 10 mM stock solution, which was aliquoted into 20 μL/tube and cryopreserved at −20° C. for later use.
The CAMP standard substance in the kit returned to room temperature, and an equivalent amount of the experimental buffer was added according to the volume marked on the bottle label. The mixture was vortexed for mixing, aliquoted according to 50 μL/tube, and cryopreserved at −20° C. for later use.
5 mL ddH2O was added to a bottle of cAMP-d2 and a bottle of anti-cAMP-cryptate lyophilized powder, respectively, and the mixture was mixed well by gently turning the mixture upside down, aliquoted according to 125, 62.5, and 30 μL, and the like, and cryopreserved in the dark at −80° C.
1.3.2.1 Positive compound DAMGO and the test compound were serially diluted 4-fold to obtain 10 concentrations with Bravo using experimental buffer in a compound plate (Greiner-781280) at a starting concentration of 2 μM (from DMSO stock solution diluted with experimental buffer) and 20 μM (from DMSO stock solution diluted with experimental buffer), respectively.
1.3.2.2 Cells cryopreserved were thawed in a water bath at 37° C., the cell suspension was added to a centrifuge tube containing 10 mL of HBSS buffer, and the mixture was centrifuged at 750 rpm for 5 min. The supernatant was discarded, the pellet was resuspended in an appropriate amount of experimental buffer, and 20 μL of the pellet was counted using a cell counter. An appropriate amount of the cell suspension was diluted to 0.4×10^6 cells/mL, and 5 μL of the cell suspension was added to each well of a cell plate (the cell density was 2000 cells/well) and centrifuged at 1000 rpm for 1 min. 5 μL of the diluted compound was transferred to a cell plate (PerkinElmer-6008280) with Bravo, 5 μL of 2 μM DAMGO (the final concentration was 1 μM) was transferred to positive control wells, and an equal volume of experimental buffer was transferred to negative control wells, and the cell plate was centrifuged at 1000 rpm for 1 min. The cell plate was sealed and incubated at room temperature for 15 min. Forskolin was diluted to 0.2 mM with DMSO, 25.1 nL of which was transferred to a cell plate with Tecan-D300e, and the plate was centrifuged at 1000 rpm for 1 min, sealed, and incubated at room temperature for 45 min.
The final concentration of the initial point was 712 nM.
1.3.2.4 Preparation of detection reagent: an appropriate amount of a cAMP-d2 stock solution and an anti-cAMP-cryptate stock solution was diluted with a lysis buffer according to the ratio of 1:20, the two solutions were then mixed well by turning the solutions upside down according to the ratio of 1:1, and vortexing was prohibited. 10 μL of the prepared detection reagent was added to a cell plate and centrifuged at 1000 rpm for 1 min. The cell plate was incubated at room temperature for 1 h in the dark. After the cell plate was centrifuged at 1000 rpm for 1 min, the plate was read using Envision. Excitation light at 340 nm, emission light at 620 nm and 665 nm.
The formula for calculating the compound activation rate in the agonist test: […]
In general terms: cAMP levels reflect the balance of adenylyl cyclase and phosphodiesterase activity.

For assay [1], the system named is pain threshold of a mouse. Briefly: Mouse thermal radiation tail-flick method. The format is in vivo, ICR mice. The note with it: for Maximum analgesic percentage (% MPE): ICR mice, intragastric 10 mg/kg, Mean ± SEM, n = 9-10. The protocol:
• Intragastric administration at a dose of 10 mg/kg;
ICR mice (normal grade, weighed 25-35 g, purchased from Shanghai Slac Laboratory Animal Co., Ltd.) were first mounted in a special plastic cylinder, their tails were exposed and allowed to droop naturally, and the measurements were made after the animals were calm. The radiation heat source could be an 8.75 mm projection lamp (32 W, adjustable). A light beam with the diameter of about 4 mm was emitted after being focused by a lens, which irradiated the skin at the junction of the middle third and the lower third of the tail (the light source and the skin at the tail must be closely attached); an electronic timer connected with the light source in parallel was used to synchronously record the irradiation duration, that is, when the irradiation started, a stopwatch was automatically started at the same time. When the tail of the animal obviously evaded, the timing was automatically stopped. The measured time interval was the tail flick latency. Mice with tail flick latency of 2-6 seconds were screened to participate in a grouping administration experiment. […] After a dose of a drug was administered to the mice, the pain threshold of the mice was measured at different times.
After a dose of a drug was administered to the mice, the pain threshold of the mice was measured at 0.5 h, 1 h, 2 h, and 3 h (effect view of the analgesic effect is shown in FIG. 1). The formula for calculating the maximum analgesic percentage (% MPE) after administration was as follows: % MPE=(post-administration pain threshold−pre-administration pain threshold)/(15−pre-administration pain threshold)×100%.
In general terms: Hot-plate and tail-flick tests time the reaction to a heat stimulus.

T1 sequence (P35372 whole entry): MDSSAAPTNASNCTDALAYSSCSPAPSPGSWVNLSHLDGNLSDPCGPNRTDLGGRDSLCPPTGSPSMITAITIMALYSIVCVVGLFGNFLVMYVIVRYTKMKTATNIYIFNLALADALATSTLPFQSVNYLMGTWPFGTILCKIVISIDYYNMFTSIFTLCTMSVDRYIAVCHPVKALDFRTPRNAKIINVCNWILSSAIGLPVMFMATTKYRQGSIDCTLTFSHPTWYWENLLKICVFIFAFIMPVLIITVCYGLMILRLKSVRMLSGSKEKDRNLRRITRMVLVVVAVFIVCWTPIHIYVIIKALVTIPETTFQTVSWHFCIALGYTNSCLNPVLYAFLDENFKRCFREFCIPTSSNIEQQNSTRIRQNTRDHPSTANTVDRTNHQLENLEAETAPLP

Consider `Fc1ccc(C2(CCN[C@H]3CCc4ccc(F)cc43)CCOC3(CCOCC3)C2)nc1` (stereo partly drawn) [Compound 1-1, (1S)-6-fluoro-N-(2-(4-(5-fluoropyridin-2-yl)-1,9-dioxaspiro[5.5]undecan-4-yl)ethyl)-2,3-dihydro-1H-inden-1-amine], for which, at MOR, the negative logarithm of the EC50 (pEC50) (usually the negative decadic logarithm of the EC50, by convention in mol/L) was 9.36 and the Emax (usually the maximal effect, on the per cent scale that the assay sets) was found to be 103%.
In the same order, the values of `Fc1ccc(C2(CCN[C@H]3CCc4c(F)cccc43)CCOC3(CCOCC3)C2)nc1` (stereo partly drawn) [Compound 2-1, (1S)-4-fluoro-N-(2-(4-(5-fluoropyridin-2-yl)-1,9-dioxaspiro[5.5]undecan-4-yl)ethyl)-2,3-dihydro-1H-inden-1-amine] are 7.63 and 101%.
With `Fc1ccc(C2(CCN[C@H]3CCc4ccccc43)CCOC3(CCOCC3)C2)nc1` (stereo partly drawn) [Compound 3-1, (1S)-N-(2-(-4-(5-fluoropyridin-2-yl)-1,9-dioxaspiro[5.5]undecan-4-yl)ethyl)-2,3-dihydro-1H-inden-1-amine], on MOR, the negative logarithm of the EC50 (pEC50) is 9.10 and the maximum response (Emax) worked out at 99.9%.
For `Fc1ccc(C2(CCNC3CCc4ccc(Cl)cc43)CCOC3(CCOCC3)C2)nc1` (stereo not shown) [Compound 4, 6-chloro-N-(2-(4-(5-fluoropyridin-2-yl)-1,9-dioxaspiro[5.5]undecan-4-yl)ethyl)-2,3-dihydro-1H-inden-1-amine], in that order: 8.66 and 103%.
Consider `Fc1ccc(C2(CCN[C@H]3CCc4c(Cl)cccc43)CCOC3(CCOCC3)C2)nc1` (stereo partly drawn) [Compound 5-1, (1S)-4-chloro-N-(2-(4-(5-fluoropyridin-2-yl)-1,9-dioxaspiro[5.5]undecan-4-yl)ethyl)-2,3-dihydro-1H-inden-1-amine], for which, at MOR, the pEC50 is 8.88 and the Emax is 111%.
Turning to `Cc1cccc2c1CC[C@@H]2NCCC1(c2ccc(F)cn2)CCOC2(CCOCC2)C1` (stereo partly drawn) [Compound 6-1, (1S)-N-(2-(4-(5-fluoropyridin-2-yl)-1,9-dioxaspiro[5.5]undecan-4-yl)ethyl)-4-methyl-2,3-dihydro-1H-inden-1-amine], on MOR, the pEC50 is 8.81 and the Emax worked out at 118%.
For `Fc1ccc(C2(CCN[C@H]3CCc4c(Br)cccc43)CCOC3(CCOCC3)C2)nc1` (stereo partly drawn) [Compound 7-1, (1S)-4-bromo-N-(2-(4-(5-fluoropyridin-2-yl)-1,9-dioxaspiro[5.5]undecan-4-yl)ethyl)-2,3-dihydro-1H-inden-1-amine], on MOR, the pEC50 was 8.77 and the Emax stood at 116%.
On to `Fc1ccc([C@]2(CCN[C@H]3Cc4cccc(Br)c4C3)CCOC3(CCOCC3)C2)nc1` [Compound 10-1-1, (S)-4-bromo-N-(2-((R)-4-(5-fluoropyridin-2-yl)-1,9-dioxaspiro[5.5]undecan-4-yl)ethyl)-2,3-dihydro-1H-inden-2-amine], for which, on MOR, the pEC50 is 9.10 and the maximum response (Emax) turned out to be 104%.
`Fc1ccc(C2(CCNCc3cccc(Cl)c3)CCOC3(CCOCC3)C2)nc1` (stereo not shown) [Compound 11, N-(3-chlorobenzyl)-2-(4-(5-fluoropyridin-2-yl)-1,9-dioxaspiro[5.5]undecan-4-yl)ethan-1-amine]: on MOR, the pEC50 was 8.11 and the Emax came to 100%.
As for `Cc1c(Cl)cccc1CNCC[C@@]1(c2ccc(F)cn2)CCOC2(CCOCC2)C1` [Compound 12-1, (R)—N-(3-chloro-2-methylbenzyl)-2-(4-(5-fluoropyridin-2-yl)-1,9-dioxaspiro[5.5]undecan-4-yl)ethan-1-amine], the negative-log EC50 (pEC50) at MOR is 8.89. Besides, on MOR, the maximum response (Emax) was found to be 93.8%. In addition, the “Maximum analgesic percentage (% MPE)” value in assay [1] (0.5 h after administration) turned out to be 99.48 ± 0.52 %; in assay [1] (1 h after administration), 86.20 ± 9.32 %; in assay [1] (2 h after administration), 89.98 ± 10.02 %; in assay [1] (3 h after administration), 78.89 ± 10.05 %. Also, the “Maintenance of the analgesic effect compared with oxycodone” value in assay [1] (mouse tail flick, 0.5-3 h after administration) is reported as “maintained for a longer period of time”. Moreover, the “Drug effect compared with oxycodone” value in assay [1] (mouse tail flick, same dose (10 mg/kg intragastric)) was “better drug effect than oxycodone”.
On to `Fc1ccc(C2(CCNCc3cccc(Cl)c3Cl)CCOC3(CCOCC3)C2)nc1` (stereo not shown) [Compound 13, N-(2,3-dichlorobenzyl)-2-(4-(5-fluoropyridin-2-yl)-1,9-dioxaspiro[5.5]undecan-4-yl)ethan-1-amine], for which, at MOR, the pEC50 was 7.76 and the Emax was 78.9%.
For `Fc1ccc(C2(CCNCc3cccc(Cl)c3F)CCOC3(CCOCC3)C2)nc1` (stereo not shown) [Compound 14, N-(3-chloro-2-fluorobenzyl)-2-(4-(5-fluoropyridin-2-yl)-1,9-dioxaspiro[5.5]undecan-4-yl)ethan-1-amine], in that order: 7.62 and 88.1%.
As to `Clc1cccc2c1CCC2NCCC1(c2ccccn2)CCOC2(CCOCC2)C1` (stereo not shown) [Compound 16, 4-chloro-N-(2-(4-(pyridin-2-yl)-1,9-dioxaspiro[5.5]undecan-4-yl)ethyl)-2,3-dihydro-1H-inden-1-amine], on MOR, the pEC50 was 8.62 and the Emax came out at 102%.
As to `Fc1ccc(C2(CCNC3Cc4cccc(Cl)c4C3)CCOC3(CCOCC3)C2)nc1` (stereo not shown) [Compound 17, 4-chloro-N-(2-(4-(5-fluoropyridin-2-yl)-1,9-dioxaspiro[5.5]undecan-4-yl)ethyl)-2,3-dihydro-1H-inden-2-amine], on MOR, the pEC50 is 8.67 and the Emax was 93.8%.
For `Fc1ccc([C@]2(CCN[C@H]3Cc4cccc(Cl)c4C3)CCOC3(CCOCC3)C2)nc1` [Compound 17-1-1, (S)-4-chloro-N-(2-((R)-4-(5-fluoropyridin-2-yl)-1,9-dioxaspiro[5.5]undecan-4-yl)ethyl)-2,3-dihydro-1H-inden-2-amine], in that order: 9.19 and 102%.
For the compound `COc1ccc2c3c1O[C@H]1C(=O)CC[C@@]4(O)[C@@H](C2)N(C)CC[C@]314` [Oxycodone, reference compound], the Emax at MOR came to 95.2%. The “Maximum analgesic percentage (% MPE)” value was 37.87 ± 12.44% in assay [1] (0.5 h after administration), 3.63 ± 8.14% in assay [1] (2 h after administration) and −0.23 ± 6.48% in assay [1] (3 h after administration).

For the origin of these results see US20240398772A1, “OXASPIRO DERIVATIVE, AND PREPARATION METHOD THEREFOR AND USE THEREOF” (SHUJING BIOPHARMA CO., LTD, priority 2021, published 2024).
